Laboratory results as given in patent US20220136032A1, “SELECTION MEDIUM FOR BACTERIA BELONGING TO GENUS PSEUDOMONAS AND USE THEREOF” (KABUSHIKI KAISHA YAKULT HONSHA, priority 2019, published 2022).
Where a name gives a salt, the structure may show the parent alone. Read-outs that look alike come from different tables or passages of the source.

How the values were obtained:
Assay in all cases: Measurement of minimum inhibitory concentrations (MICs), liquid medium, OD 660 nm
P. aeruginosa = format: cell-based, Pseudomonas aeruginosa; conditions: for MIC: Pseudomonas aeruginosa, read-out: MIC (μg/ml) P. aeruginosa
Description: (§1) Colonies of E. coli, E. faecium and C. kerstersii, which formed colonies on the plate medium obtained by mixing NAC medium and TSA medium at a ratio of 1:20, and colonies of P. aeruginosa were taken, added to 500 μl of the basal medium, stirred and subjected to the following experiment.
The antibacterial agents were dissolved in sterilized distilled water at 51.2 mg/ml and then sterilized by filtration through a membrane filter of 0.45 μm (DISMIC-25cs: Toyo Roshi).
(§2) After adding 5 μl of the bacterial solutions to the wells and thoroughly stirring, the bacteria were cultured at 37° C. for 24 hours. After culturing, the OD values (660 nm) were measured, and the lowest concentrations of the antibacterial agents at which the growth was inhibited as compared to that of the negative control (MICs: minimum inhibitory concentrations) were determined. As the negative control, the liquid medium to which the antibacterial agents were not added was used.

E. faecium = format: cell-based, Enterococcus faecium; conditions: Trypticase Soy Broth, 37° C. 24 hours
Description: as §1
(§3) As antibacterial agents to which the sensitivity of P. aeruginosa is low and to which the sensitivities of E. coli, E. faecium and C. kerstersii are high, cefotaxime sodium salt (Sigma (referred to as “Cefotaxime” below)), ceftizoxime sodium (Fujisawa Healthcare (referred to as “Ceftizoxime” below)), vancomycin hydrochloride (Sigma (referred to as “Vancomycin” below)), minocyclin hydrochloride (Sigma (referred to as “Minocyclin” below)) and cefalotin sodium salt (Sigma (referred to as “Cefalotin” below)) were selected. The antibacterial agents were dissolved in sterilized distilled water at 51.2 mg/ml and then sterilized by filtration through a membrane filter of 0.45 μm (DISMIC-25cs: Toyo Roshi).
as §2, with “As the negative control, the liquid medium to which the antibacterial agents were not added was used.” left out

C. kerstersii = format: cell-based, Comamonas kerstersii; conditions: for MIC: Comamonas kerstersii, read-out: MIC (μg/ml) C. kerstersii
Description: as §1, §3, §2

E. coli = format: cell-based; conditions: Escherichia coli; Trypticase Soy Broth, 37° C. 24 hours; read-out: MIC (μg/ml) E. coli
Description: as §1, §3
as §2, with “As the negative control, the liquid medium to which the antibacterial agents were not added was used.” left out

[1] = Trypticase Soy Broth, 37° C. 24 hours

`CC(=O)OCC1=C(C(=O)O)N2C(=O)[C@@H](NC(=O)Cc3cccs3)[C@H]2SC1` [Cefalotin, cefalotin sodium salt] was tested, and the “Sensitivity of P. aeruginosa to the antibacterial agent” value (P. aeruginosa) was “low”, the MIC (P. aeruginosa; [1]) was over 256 µg/mL and the MIC (E. faecium; Enterococcus faecium, read-out: MIC (μg/ml) E. faecium) was 8 µg/mL. It also gave an MIC (C. kerstersii; [1]) of 16 µg/mL.
Molecule `CO/N=C(\C(=O)N[C@@H]1C(=O)N2C(C(=O)O)=C(COC(C)=O)CS[C@H]12)c1csc(N)n1` [Cefotaxime, cefotaxime sodium salt] has an MIC (P. aeruginosa; [1]) of 16 µg/mL and an MIC (E. coli) of under 0.5 µg/mL.
With `CO/N=C(\C(=O)N[C@@H]1C(=O)N2C(C(=O)O)=CCS[C@H]12)c1csc(N)n1` [Ceftizoxime, ceftizoxime sodium] the MIC (P. aeruginosa; [1]) was 64 µg/mL and the MIC (E. coli) was under 0.5 µg/mL.
`CN(C)c1ccc(O)c2c1C[C@@H]1C[C@@H]3[C@H](N(C)C)C(=O)C(C(N)=O)=C(O)[C@@]3(O)C(=O)C1=C2O.Cl` [Minocyclin, minocyclin hydrochloride] was tested, and the “Sensitivity of P. aeruginosa to the antibacterial agent” value (P. aeruginosa) was “sensitive”, the “MIC (μg/ml) P. aeruginosa” value (P. aeruginosa; [1]) was under 0.5 µg/mL and the “MIC (μg/ml) E. faecium” value (E. faecium) was under 0.5 µg/mL. For the same molecule, the “MIC (μg/ml) C. kerstersii” value (C. kerstersii; [1]) was under 0.5 µg/mL.
With `CN[C@H](CC(C)C)C(=O)N[C@H]1C(=O)N[C@@H](CC(N)=O)C(=O)N[C@H]2C(=O)N[C@H]3C(=O)N[C@H](C(=O)N[C@H](C(=O)O)c4cc(O)cc(O)c4-c4cc3ccc4O)[C@H](O)c3ccc(c(Cl)c3)Oc3cc2cc(c3O[C@@H]2O[C@H](CO)[C@@H](O)[C@H](O)[C@H]2O[C@H]2C[C@](C)(N)[C@H](O)[C@H](C)O2)Oc2ccc(cc2Cl)[C@H]1O` [Vancomycin, vancomycin hydrochloride] the MIC (P. aeruginosa; 24 h) was over 256 µg/mL, the “Sensitivity of C. kerstersii to the antibacterial agent” value (C. kerstersii) was “low” and the MIC (C. kerstersii; 24 h) was 128 µg/mL.
